Data from patent US20160122386A1, “V1A RECEPTOR AGONISTS” (FERRING B.V., priority 2014, published 2016).
Starred links: 1 amine or outer side, 2 acyl side, 3 side chain; linkers in the order of their positions; H or OH if unused. Positions of bridges follow the written chain, without caps; N, C: chain ends. Non-standard residues stand in square brackets, D forms with d. Residues, ends and D or L forms follow the SMILES beside them. Chains are numbered I, II in the order given. *: point of attachment. d(isoGln) = NC(=O)[C@@H](CCC(=O)[*:2])N[*:1]; isoGln = NC(=O)[C@H](CCC(=O)[*:2])N[*:1]; d(εLys) = N[C@H](CCCCN[*:1])C(=O)[*:2]; X1 = N[C@@H](CCC(=O)[*:2])C(=O)[*:1]; X4 = N[C@H](CCC(=O)[*:2])C(=O)[*:1]; Aad = N[C@@H](CCCC(=O)O)C(=O)O; Dab = NCC[C@H](N)C(=O)O; PhAc = O=C(Cc1ccccc1)*

Molecular target: T1, human V1aR (Homo sapiens, UniProt P37288)
T1 construct: expressed in transfected cells
Assay: Agonist activity at vasopressin V1a receptors, cell-based FLIPR calcium assay
Settings: for Emax: read-out: Efficacy Avg. (%)
How it was run: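 HEK Flp-In cells stably expressing human V1aR were loaded with Calcium 4 dye plus 2.5 mM probenecid for 1 h at 37 °C, then given half-log compound concentrations (final 0.1% DMSO) on FLIPR Tetra.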

T1 sequence (P37288 whole entry): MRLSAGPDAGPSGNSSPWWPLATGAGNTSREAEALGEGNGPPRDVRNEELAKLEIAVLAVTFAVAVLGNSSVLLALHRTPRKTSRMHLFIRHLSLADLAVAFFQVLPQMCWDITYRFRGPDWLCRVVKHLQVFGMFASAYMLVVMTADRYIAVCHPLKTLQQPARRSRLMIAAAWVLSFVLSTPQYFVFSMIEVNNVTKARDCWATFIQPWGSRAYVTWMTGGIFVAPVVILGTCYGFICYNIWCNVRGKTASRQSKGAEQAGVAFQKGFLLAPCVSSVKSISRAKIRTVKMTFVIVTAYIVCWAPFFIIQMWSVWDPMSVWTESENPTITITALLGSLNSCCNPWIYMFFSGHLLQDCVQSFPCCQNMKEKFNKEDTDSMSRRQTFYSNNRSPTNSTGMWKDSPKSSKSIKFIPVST

| Compound | EC50 | Emax |
| --- | --- | --- |
| CC[C@H](C)[C@@H]1NC(=O)[C@H](Cc2ccccc2)NC(=O)[C@@H](N)CSSC[C@@H](C(=O)N2CCC[C@H]2C(=O)N[C@@H](CCNC(=O)[C@H](N)CCCCNC(=O)CC[C@H](NC(=O)[C@H](CCCNC(=N)N)NC(=O)[C@@H]2CCCN2C(=O)[C@H](C)NC(=O)[C@H](CC(N)=O)NC(=O)[C@H](CCC(N)=O)NC(=O)[C@H](Cc2ccccc2)NC(=O)[C@@H](Cc2ccc(OC)cc2)NC(=O)Cc2ccccc2)C(N)=O)C(=O)NCC(N)=O)NC(=O)[C@H](CC(N)=O)NC(=O)[C@H](CC(N)=O)NC1=O [Compound 60] (I: H-CFINNCP[Dab]G-NH2 / II: PhAc-[dY](Me)FQNAPR[isoGln][d(εLys)]; disulfide I:1-I:6; amide I:8-II:C) | 2.3 nM | 42% |
| CC[C@H](C)[C@@H]1NC(=O)[C@H](Cc2ccccc2)NC(=O)[C@@H](N)CSSC[C@@H](C(=O)N2CCC[C@H]2C(=O)N[C@@H](CCNC(=O)[C@H](N)CCCCNC(=O)CC[C@H](NC(=O)[C@H](CCCNC(=N)N)NC(=O)[C@@H]2CCCN2C(=O)[C@H](CCC(N)=O)NC(=O)[C@H](CC(N)=O)NC(=O)[C@H](CCC(N)=O)NC(=O)[C@H](Cc2ccccc2)NC(=O)[C@@H](Cc2ccc(OC)cc2)NC(=O)Cc2ccccc2)C(N)=O)C(=O)NCC(N)=O)NC(=O)[C@H](CC(N)=O)NC(=O)[C@H](CCCC(N)=O)NC1=O [Compound 61] (I: H-CFI[Aad](NH2)NCP[Dab]G-NH2 / II: PhAc-[dY](Me)FQNQPR[isoGln][d(εLys)]; disulfide I:1-I:6; amide I:8-II:C) | 2.5 nM | 38% |
| CC[C@H](C)[C@@H]1NC(=O)[C@H](Cc2ccccc2)NC(=O)[C@@H](N)CSSC[C@@H](C(=O)N2CCC[C@H]2C(=O)N[C@@H](CCNC(=O)[C@H](N)CCCCNC(=O)CC[C@@H](NC(=O)[C@H](CCCNC(=N)N)NC(=O)[C@@H]2CCCN2C(=O)[C@H](C)NC(=O)[C@H](CC(N)=O)NC(=O)[C@H](CCC(N)=O)NC(=O)[C@H](Cc2ccccc2)NC(=O)[C@@H](Cc2ccc(OC)cc2)NC(=O)Cc2ccccc2)C(N)=O)C(=O)NCC(N)=O)NC(=O)[C@H](CC(N)=O)NC(=O)[C@H](CCCC(N)=O)NC1=O [Compound 62] (I: H-CFI[Aad](NH2)NCP[Dab]G-NH2 / II: PhAc-[dY](Me)FQNAPR[d(isoGln)][d(εLys)]; disulfide I:1-I:6; amide I:8-II:C) | 2.5 nM | 31% |
| CC[C@H](C)[C@@H]1NC(=O)[C@H](Cc2ccccc2)NC(=O)[C@@H](N)CSSC[C@@H](C(=O)N2CCC[C@H]2C(=O)N[C@@H](CCNC(=O)[C@@H](N)CCC(=O)NCCCC[C@H](NC(=O)[C@H](CCCNC(=N)N)NC(=O)[C@@H]2CCCN2C(=O)[C@H](C)NC(=O)[C@H](CC(N)=O)NC(=O)[C@H](CCC(N)=O)NC(=O)[C@H](Cc2ccccc2)NC(=O)[C@@H](Cc2ccc(OC)cc2)NC(=O)Cc2ccccc2)C(N)=O)C(=O)NCC(N)=O)NC(=O)[C@H](CC(N)=O)NC(=O)[C@H](CC(N)=O)NC1=O [Compound 63] (I: H-CFINNCP[Dab]G-NH2 / II: PhAc-[dY](Me)FQNAPRK-NH2; disulfide I:1-I:6; linker I:8-II:8 via X1) | 1.1 nM | 36% |
| CC[C@H](C)[C@@H]1NC(=O)[C@H](Cc2ccccc2)NC(=O)[C@@H](N)CSSC[C@@H](C(=O)N2CCC[C@H]2C(=O)N[C@@H](CCNC(=O)[C@@H](N)CCC(=O)NCCCC[C@H](NC(=O)[C@H](CCCNC(=N)N)NC(=O)[C@@H]2CCCN2C(=O)[C@H](C)NC(=O)[C@H](CC(N)=O)NC(=O)[C@H](CCC(N)=O)NC(=O)[C@H](Cc2ccccc2)NC(=O)[C@@H](Cc2ccc(OC)cc2)NC(=O)Cc2ccccc2)C(N)=O)C(=O)NCC(N)=O)NC(=O)[C@H](CC(N)=O)NC(=O)[C@H](CCCC(N)=O)NC1=O [Compound 64] (I: H-CFI[Aad](NH2)NCP[Dab]G-NH2 / II: PhAc-[dY](Me)FQNAPRK-NH2; disulfide I:1-I:6; linker I:8-II:8 via X1) | 2.9 nM | 42% |
| CC[C@H](C)[C@@H]1NC(=O)[C@H](Cc2ccccc2)NC(=O)[C@@H](N)CSSC[C@@H](C(=O)N2CCC[C@H]2C(=O)N[C@@H](CCNC(=O)[C@H](N)CCC(=O)NCCCC[C@H](NC(=O)[C@H](CCCNC(=N)N)NC(=O)[C@@H]2CCCN2C(=O)[C@H](C)NC(=O)[C@H](CC(N)=O)NC(=O)[C@H](CCC(N)=O)NC(=O)[C@H](Cc2ccccc2)NC(=O)[C@@H](Cc2ccc(OC)cc2)NC(=O)Cc2ccccc2)C(N)=O)C(=O)NCC(N)=O)NC(=O)[C@H](CC(N)=O)NC(=O)[C@H](CCCC(N)=O)NC1=O [Compound 65] (I: H-CFI[Aad](NH2)NCP[Dab]G-NH2 / II: PhAc-[dY](Me)FQNAPRK-NH2; disulfide I:1-I:6; linker I:8-II:8 via X4) | 4.5 nM | 31% |
| CC[C@H](C)[C@@H]1NC(=O)[C@H](Cc2ccccc2)NC(=O)[C@@H](N)CSSC[C@@H](C(=O)N2CCC[C@H]2C(=O)N[C@@H](CCNC(=O)[C@H](N)CCC(=O)NCCCC[C@H](NC(=O)[C@H](CCCNC(=N)N)NC(=O)[C@@H]2CCCN2C(=O)[C@H](C)NC(=O)[C@H](CC(N)=O)NC(=O)[C@H](CCC(N)=O)NC(=O)[C@H](Cc2ccccc2)NC(=O)[C@@H](Cc2ccc(OC)cc2)NC(=O)Cc2ccccc2)C(N)=O)C(=O)NCC(N)=O)NC(=O)[C@H](CC(N)=O)NC(=O)[C@H](CC(N)=O)NC1=O [Compound 66] (I: H-CFINNCP[Dab]G-NH2 / II: PhAc-[dY](Me)FQNAPRK-NH2; disulfide I:1-I:6; linker I:8-II:8 via X4) | 2.3 nM | 30% |
